Data reported in US20240208992A1, “MACROCYCLES AS CFTR MODULATORS” (Idorsia Pharmaceuticals Ltd, priority 2021, published 2024).

Molecular target: human F508del-CFTR (Homo sapiens, UniProt P13569, DEL508-508)
Experiment: F508del-CFTR cell surface expression (corrector activity), DiscoveRx ß-galactosidase complementation chemiluminescence assay in recombinant U2OS cell line;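 note: U2OS cells co-expressing ProLink-tagged F508del-CFTR and a membrane-anchored enzyme acceptor, where more surface CFTR restores β-galactosidase activity measured by chemiluminescence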
Conditions: U2OS cells, 16h compound incubation; for EC50: EC50, F508del-CFTR cell surface expression, geomean of several measurements; for Emax: U2OS, in relation to the Emax of the corrector lumacaftor (=100%), arithmetic mean

human F508del-CFTR, sequence (P13569 with tags, fused parts or gaps DEL508-508): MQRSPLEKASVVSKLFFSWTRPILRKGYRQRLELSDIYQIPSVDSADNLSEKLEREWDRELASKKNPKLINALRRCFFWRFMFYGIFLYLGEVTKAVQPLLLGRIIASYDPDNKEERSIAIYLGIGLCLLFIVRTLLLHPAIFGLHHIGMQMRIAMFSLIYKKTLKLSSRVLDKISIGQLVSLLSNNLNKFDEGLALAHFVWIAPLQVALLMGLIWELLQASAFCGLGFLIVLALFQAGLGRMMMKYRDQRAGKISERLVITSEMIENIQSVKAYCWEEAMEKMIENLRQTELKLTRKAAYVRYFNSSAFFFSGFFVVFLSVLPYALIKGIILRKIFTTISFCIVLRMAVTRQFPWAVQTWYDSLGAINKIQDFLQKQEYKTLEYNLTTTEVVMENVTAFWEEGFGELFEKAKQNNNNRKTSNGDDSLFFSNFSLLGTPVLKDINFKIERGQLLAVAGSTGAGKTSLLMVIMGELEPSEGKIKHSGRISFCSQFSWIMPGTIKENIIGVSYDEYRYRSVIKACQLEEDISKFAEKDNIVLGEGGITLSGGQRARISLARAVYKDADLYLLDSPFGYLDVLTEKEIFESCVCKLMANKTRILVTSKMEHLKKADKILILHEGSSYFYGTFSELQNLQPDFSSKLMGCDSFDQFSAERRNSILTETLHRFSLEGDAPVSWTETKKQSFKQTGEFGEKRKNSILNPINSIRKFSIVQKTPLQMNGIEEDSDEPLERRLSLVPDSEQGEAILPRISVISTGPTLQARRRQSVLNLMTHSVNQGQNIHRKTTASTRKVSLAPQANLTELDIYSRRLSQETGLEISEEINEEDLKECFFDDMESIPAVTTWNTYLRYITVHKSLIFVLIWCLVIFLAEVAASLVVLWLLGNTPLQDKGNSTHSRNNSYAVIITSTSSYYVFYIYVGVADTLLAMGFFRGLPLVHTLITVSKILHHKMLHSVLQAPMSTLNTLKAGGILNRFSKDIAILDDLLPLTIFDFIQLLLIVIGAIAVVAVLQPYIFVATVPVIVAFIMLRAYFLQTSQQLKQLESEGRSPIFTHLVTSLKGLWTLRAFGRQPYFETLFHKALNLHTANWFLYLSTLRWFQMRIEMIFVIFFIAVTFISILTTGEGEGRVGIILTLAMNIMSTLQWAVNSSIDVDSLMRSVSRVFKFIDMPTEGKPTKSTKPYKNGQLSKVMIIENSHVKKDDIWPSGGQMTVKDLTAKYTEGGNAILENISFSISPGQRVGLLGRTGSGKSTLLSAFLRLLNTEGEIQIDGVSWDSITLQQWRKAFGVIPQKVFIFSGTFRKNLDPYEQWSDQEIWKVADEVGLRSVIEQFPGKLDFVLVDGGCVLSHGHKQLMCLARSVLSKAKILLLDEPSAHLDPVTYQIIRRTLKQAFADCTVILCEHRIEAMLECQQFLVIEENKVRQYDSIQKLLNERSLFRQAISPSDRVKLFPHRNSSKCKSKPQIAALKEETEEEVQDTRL

Compound	EC50	Emax
Cc1noc(CC[C@@H]2C(=O)N[C@H](Cc3ccccc3)COc3cnc4ccc(F)cc4c3C(=O)N[C@H](C(=O)NCCc3noc(C4CC4)n3)CC(=O)N(C)[C@@H](CC(C)C)C(=O)N2C)n1 [Example 851, (3S,7S,10R,13R)-13-benzyl-N-(2-(5-cyclopropyl-1,2,4-oxadiazol-3-yl)ethyl)-20-fluoro-7-isobutyl-6,9-dimethyl-10-(2-(3-methyl-1,2,4-oxadiazol-5-yl)ethyl)-1,5,8,11-tetraoxo-1,2,3,4,5,6,7,8,9,10,11,12,13,14-tetradecahydro-[1]oxa[4,7,10,14]tetraazacycloheptadecino[17,16-c]quinoline-3-carboxamide]	148 nM	310%
Cc1cc(CCNC(=O)[C@@H]2CC(=O)N(C)[C@@H](CC(C)C)C(=O)N3CCN(c4ccc(F)cn4)C[C@@H]3C(=O)N[C@H](Cc3ccccc3)COc3cnc4ccccc4c3C(=O)N2)on1 [Example 852, (9S,13S,19aR,22R)-22-benzyl-18-(5-fluoropyridin-2-yl)-13-isobutyl-12-methyl-N-(2-(3-methylisoxazol-5-yl)ethyl)-7,11,14,20-tetraoxo-7,8,9,10,11,12,13,14,17,18,19,19a,20,21,22,23-hexadecahydro-16H-pyrazino[2′,11:6,7][1]oxa[4,7,10,14]tetraazacycloheptadecino[17,16-c]quinoline-9-carboxamide]	163 nM	249%
COc1cccc(CCNC(=O)[C@@H]2CC(=O)N(C)[C@@H](CC(C)C)C(=O)N3CCN(c4ccc(F)cn4)C[C@@H]3C(=O)N[C@H](Cc3ccccc3)COc3cnc4ccccc4c3C(=O)N2)c1 [Example 853, (9S,13S,19aR,22R)-22-benzyl-18-(5-fluoropyridin-2-yl)-13-isobutyl-N-(3-methoxyphenethyl)-12-methyl-7,11,14,20-tetraoxo-7,8,9,10,11,12,13,14,17,18,19,19a,20,21,22,23-hexadecahydro-16H-pyrazino[2′,1′:6,7][1]oxa[4,7,10,14]tetraazacycloheptadecino[17,16-c]quinoline-9-carboxamide]	92 nM	322%
COc1cc(CCNC(=O)[C@@H]2CC(=O)N(C)[C@@H](CC(C)C)C(=O)N(C)[C@H](CC3CCC(F)(F)CC3)C(=O)N[C@H](Cc3ccccc3)COc3ccnc(OC)c3C(=O)N2)on1 [Example 854, (3R,6R,9S,13S)-3-benzyl-6-((4,4-difluorocyclohexyl)methyl)-9-isobutyl-16-methoxy-N-(2-(3-methoxyisoxazol-5-yl)ethyl)-7,10-dimethyl-5,8,11,15-tetraoxo-2,3,4,5,6,7,8,9,10,11,12,13,14,15-tetradecahydropyrido[3,4-p][1]oxa[4,7,10,14]tetraazacycloheptadecine-13-carboxamide]	136 nM	326%
COc1nccc2c1C(=O)N[C@H](C(=O)NCCc1cc(C)no1)CC(=O)N(C)[C@@H](CC(C)C)C(=O)N(C)[C@H](CCOc1ccccc1)C(=O)N[C@H](Cc1ccccc1)CO2 [Example 855, (3R,6R,9S,13S)-3-benzyl-9-isobutyl-16-methoxy-7,10-dimethyl-N-(2-(3-methylisoxazol-5-yl)ethyl)-5,8,11,15-tetraoxo-6-(2-phenoxyethyl)-2,3,4,5,6,7,8,9,10,11,12,13,14,15-tetradecahydropyrido[3,4-p][1]oxa[4,7,10,14]tetraazacycloheptadecine-13-carboxamide]	80 nM	341%
COc1cc(CCNC(=O)[C@@H]2CC(=O)N(C)[C@@H](CC(C)C)C(=O)N(C)[C@H](CCOc3ccccc3)C(=O)N[C@H](Cc3ccccc3)COc3ccnc(OC)c3C(=O)N2)on1 [Example 856, (3R,6R,9S,13S)-3-benzyl-9-isobutyl-16-methoxy-N-(2-(3-methoxyisoxazol-5-yl)ethyl)-7,10-dimethyl-5,8,11,15-tetraoxo-6-(2-phenoxyethyl)-2,3,4,5,6,7,8,9,10,11,12,13,14,15-tetradecahydropyrido[3,4-p][1]oxa[4,7,10,14]tetraazacycloheptadecine-13-carboxamide]	35 nM	357%
COc1nccc2c1C(=O)N[C@H](C(=O)NCCc1noc(C3CC3)n1)CC(=O)N(C)[C@@H](CC(C)C)C(=O)N(C)[C@H](COC1CCC1)C(=O)N[C@H](Cc1ccccc1)CO2 [Example 857, (3R,6R,9S,13S)-3-benzyl-6-(cyclobutoxymethyl)-N-(2-(5-cyclopropyl-1,2,4-oxadiazol-3-yl)ethyl)-9-isobutyl-16-methoxy-7,10-dimethyl-5,8,11,15-tetraoxo-2,3,4,5,6,7,8,9,10,11,12,13,14,15-tetradecahydropyrido[3,4-p][1]oxa[4,7,10,14]tetraazacycloheptadecine-13-carboxamide]	407 nM	337%
COc1nccc2c1C(=O)N[C@H](C(=O)NCCc1cc(C)no1)CC(=O)N(C)[C@@H](CC(C)C)C(=O)N(C)[C@H](CCOC1CCCCC1)C(=O)N[C@H](Cc1ccccc1)CO2 [Example 858, (3R,6R,9S,13S)-3-benzyl-6-(2-(cyclohexyloxy)ethyl)-9-isobutyl-16-methoxy-7,10-dimethyl-N-(2-(3-methylisoxazol-5-yl)ethyl)-5,8,11,15-tetraoxo-2,3,4,5,6,7,8,9,10,11,12,13,14,15-tetradecahydropyrido[3,4-p][1]oxa[4,7,10,14]tetraazacycloheptadecine-13-carboxamide]	95 nM	308%
COc1nccc2c1C(=O)N[C@H](C(=O)NCCc1noc(C3CC3)n1)CC(=O)N(C)[C@@H](CC(C)C)C(=O)N(C)[C@H](Cc1nc(-c3ccccc3)no1)C(=O)N[C@H](Cc1ccccc1)CO2 [Example 859, (3R,6R,9S,13S)-3-benzyl-N-(2-(5-cyclopropyl-1,2,4-oxadiazol-3-yl)ethyl)-9-isobutyl-16-methoxy-7,10-dimethyl-5,8,11,15-tetraoxo-6-((3-phenyl-1,2,4-oxadiazol-5-yl)methyl)-2,3,4,5,6,7,8,9,10,11,12,13,14,15-tetradecahydropyrido[3,4-p][1]oxa[4,7,10,14]tetraazacycloheptadecine-13-carboxamide]	36 nM	342%
COc1cccc(CCNC(=O)[C@@H]2CC(=O)N(C)[C@@H](CC(C)C)C(=O)N(C)[C@H](C)C(=O)N[C@H](Cc3ccccc3)COc3nc(C)nc(OC)c3C(=O)N2)c1 [Example 860, (7S,11S,14R,17R)-17-benzyl-11-isobutyl-4-methoxy-N-(3-methoxyphenethyl)-2,10,13,14-tetramethyl-5,9,12,15-tetraoxo-5,6,7,8,9,10,11,12,13,14,15,16,17,18-tetradecahydropyrimido[5,4-p][1]oxa[4,7,10,14]tetraazacycloheptadecine-7-carboxamide]	578 nM	288%
COc1cc(C[C@@H]2C(=O)N[C@H](Cc3ccccc3)COc3ccnc(OC)c3C(=O)N[C@H](C(=O)NCCc3noc(C4CC4)n3)CC(=O)N(C)[C@@H](CC(C)C)C(=O)N2C)on1 [Example 861, (3R,6R,9S,13S)-3-benzyl-N-(2-(5-cyclopropyl-1,2,4-oxadiazol-3-yl)ethyl)-9-isobutyl-16-methoxy-6-((3-methoxyisoxazol-5-yl)methyl)-7,10-dimethyl-5,8,11,15-tetraoxo-2,3,4,5,6,7,8,9,10,11,12,13,14,15-tetradecahydropyrido[3,4-p][1]oxa[4,7,10,14]tetraazacycloheptadecine-13-carboxamide]	722 nM	384%
COc1nc(C)nc2c1C(=O)N[C@H](C(=O)NCCc1cc(C3CC3)no1)CC(=O)N(C)[C@@H](CC(C)C)C(=O)N(C)[C@H](C)C(=O)N[C@H](Cc1ccccc1)CO2 [Example 862, (7S,11S,14R,17R)-17-benzyl-N-(2-(3-cyclopropylisoxazol-5-yl)ethyl)-11-isobutyl-4-methoxy-2,10,13,14-tetramethyl-5,9,12,15-tetraoxo-5,6,7,8,9,10,11,12,13,14,15,16,17,18-tetradecahydropyrimido[5,4-p][1]oxa[4,7,10,14]tetraazacycloheptadecine-7-carboxamide]	921 nM	335%
COc1nccc2c1C(=O)N[C@H](C(=O)NCCc1noc(C3CC3)n1)CC(=O)N(C)[C@@H](CC(C)C)C(=O)N1CCCCC[C@@H]1C(=O)N[C@H](Cc1ccccc1)CO2 [Example 863, (7S,11S,18aR,21R)-21-benzyl-N-(2-(5-cyclopropyl-1,2,4-oxadiazol-3-yl)ethyl)-11-isobutyl-4-methoxy-10-methyl-5,9,12,19-tetraoxo-5,6,7,8,9,10,11,12,14,15,16,17,18,18a,19,20,21,22-octadecahydroazepino[2,1-f]pyrido[3,4-p][1]oxa[4,7,10,14]tetraazacycloheptadecine-7-carboxamide]	587 nM	326%
COc1nccc2c1C(=O)N[C@H](C(=O)NCCc1noc(C3CC3)n1)CC(=O)N(C)[C@@H](CC(C)C)C(=O)N(C)[C@H](CCc1nc(C3CC3)no1)C(=O)N[C@H](Cc1ccccc1)CO2 [Example 864, (3R,6R,9S,13S)-3-benzyl-N-(2-(5-cyclopropyl-1,2,4-oxadiazol-3-yl)ethyl)-6-(2-(3-cyclopropyl-1,2,4-oxadiazol-5-yl)ethyl)-9-isobutyl-16-methoxy-7,10-dimethyl-5,8,11,15-tetraoxo-2,3,4,5,6,7,8,9,10,11,12,13,14,15-tetradecahydropyrido[3,4-p][1]oxa[4,7,10,14]tetraazacycloheptadecine-13-carboxamide]	617 nM	385%
COc1cccc(CCNC(=O)[C@@H]2CC(=O)N(C)[C@@H](CC(C)C)C(=O)N(C)[C@H](C(C)(C)C)C(=O)N[C@H](Cc3ccccc3)COc3cc(C)nc(OC)c3C(=O)N2)c1 [Example 865, (3R,6R,9S,13S)-3-benzyl-6-(tert-butyl)-9-isobutyl-16-methoxy-N-(3-methoxyphenethyl)-7,10,18-trimethyl-5,8,11,15-tetraoxo-2,3,4,5,6,7,8,9,10,11,12,13,14,15-tetradecahydropyrido[3,4-p][1]oxa[4,7,10,14]tetraazacycloheptadecine-13-carboxamide]	103 nM	356%
